Data as given in ChEMBL document CHEMBL5726052, “Substituted triazoles useful as Axl inhibitors” (2019).

Target: T1, Tyrosine-protein kinase receptor UFO (Homo sapiens, UniProt P30530)
T1 sequence (P30530 whole entry): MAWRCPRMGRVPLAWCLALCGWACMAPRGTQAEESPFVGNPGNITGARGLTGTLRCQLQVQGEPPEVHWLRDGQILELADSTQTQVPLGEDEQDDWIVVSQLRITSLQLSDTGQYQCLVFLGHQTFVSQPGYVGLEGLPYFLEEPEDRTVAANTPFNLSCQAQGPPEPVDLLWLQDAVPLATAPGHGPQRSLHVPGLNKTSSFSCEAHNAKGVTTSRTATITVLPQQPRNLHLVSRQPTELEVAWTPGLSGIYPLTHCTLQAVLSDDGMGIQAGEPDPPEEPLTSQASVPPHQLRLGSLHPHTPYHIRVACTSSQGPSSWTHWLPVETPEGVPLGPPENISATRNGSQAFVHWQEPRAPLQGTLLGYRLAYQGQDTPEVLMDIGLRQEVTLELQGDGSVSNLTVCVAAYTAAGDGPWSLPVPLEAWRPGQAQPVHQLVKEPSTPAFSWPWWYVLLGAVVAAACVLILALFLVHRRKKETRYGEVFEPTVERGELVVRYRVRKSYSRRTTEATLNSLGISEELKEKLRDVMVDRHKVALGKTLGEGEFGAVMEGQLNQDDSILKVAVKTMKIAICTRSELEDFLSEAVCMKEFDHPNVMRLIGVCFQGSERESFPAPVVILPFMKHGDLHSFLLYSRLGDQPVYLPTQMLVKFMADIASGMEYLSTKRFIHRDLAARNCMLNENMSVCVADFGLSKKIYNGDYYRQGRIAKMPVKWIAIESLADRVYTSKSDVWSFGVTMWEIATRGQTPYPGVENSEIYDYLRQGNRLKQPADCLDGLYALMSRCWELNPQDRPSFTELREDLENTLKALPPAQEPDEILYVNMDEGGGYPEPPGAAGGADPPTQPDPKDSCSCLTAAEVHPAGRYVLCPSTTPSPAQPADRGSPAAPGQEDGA
Assay: PHOSPHO-AKT IN-CELL WESTERN ASSAY: The resulting chemiluminescence was read with a Luminomitor within 10 minutes to minimize changes in signal intensity. After reading the chemiluminescence, the cells were washed 1× with wash buffer and 1× with PBS by plate washer. The plate was tapped onto paper towels to remove excess liquid from wells and air-dried at ambient temperature for 5 minutes.

- IC50: > 20 µM
Compound: Nc1nc(Nc2ccc(OCCN3CCCCC3)cc2)n(-c2ccccc2)n1
